One data set has as its system MCF-7. The data set is described as follows: MTT cytotoxicity assay, MCF-7. Type of data set: cell-based. To be noted: Homo sapiens, MCF7, 24 h exposure, ± SD, n = 8. The source says: (§1) The human cervical cancer cell line Hela, the human lung adenocarcinoma cell line A549, the human breast cancer cell lines MCF-7 and MDA-MB-231, the human hepatoma cell lines BEL-7402 and Hep G2, the human embryonic lung fibroblast cell line MRC-5, and the human nasal epithelial cell line HNEpC were all sourced from the China Center for Type Culture Collection (CCTCC, Wuhan University, Hubei, China). Hela, A549, MCF-7, MDA-MB-231, BEL-7402, MRC-5, and Hep G2 cells were maintained in DMEM media, while HNEpC cells were cultured in RPMI 1640. All media were supplemented with 10% FBS (v/v) and 1% penicillin-streptomycin, and cells were grown in a humidified atmosphere containing 5% CO2 at 37 °C.
(§2) The MTT assay was conducted to assess cell viability, as previously described. Cells were seeded onto 96-well plates at a density of 1 × 10^4 cells per well, with each experiment replicated eight times to ensure reproducibility. Following incubation at 37 °C for 24 h, cells were exposed to various concentrations (0.25, 0.5, 1.0, 2.0, 4.0, 8.0, 16.0, 32.0 µM) of compounds 1–10 for 24 h. Subsequently, 10 μL MTT reagent was added to each well, and the plates were incubated for a further 4 h at 37 °C, adhering strictly to the manufacturer’s instructions. The optical density (OD) values were then measured at 570 nm using a microplate reader. The cell survival rate for each compound was calculated employing the following formula: OD value of the experimental group−OD value of the blank group/OD value of the control group−OD value of Blank group×100%
(§3) Statistical analysis data from the cytotoxicity and α-glycosidase inhibitory assays were analyzed using the mean and standard deviation. The 50% cytotoxic and inhibitory concentrations were calculated and compared to the control via non-linear regression. These analyses were performed using SPSS® Statistics (Version 18.0, IBM Software, Armonk, NY, USA).

The next data set deals with Hela. The data set is described as follows: MTT cytotoxicity assay, Hela. Type of data set: cell-based. As to conditions: Homo sapiens, 24 h exposure, ± SD, n = 8.
Excerpt: as §1
as §2, with “Following incubation at 37 °C for 24 h, cells were exposed to various concentrations (0.25, 0.5, 1.0, 2.0, 4.0, 8.0, 16.0, 32.0 µM) of compounds 1–10 for 24 h.” left out
as §3

The test system of another data set is BEL-7402. In words: MTT cytotoxicity assay, BEL-7402. Type of data set: cell-based. To be noted: Homo sapiens, 24 h exposure, ± SD, n = 8.
Excerpt: as §1
as §2, with “Following incubation at 37 °C for 24 h, cells were exposed to various concentrations (0.25, 0.5, 1.0, 2.0, 4.0, 8.0, 16.0, 32.0 µM) of compounds 1–10 for 24 h.” left out
as §3

The subject of a further data set is A549. In words: MTT cytotoxicity assay, A549. Type of data set: cell-based. To be noted: Homo sapiens, 24 h exposure, ± SD, n = 8.
Excerpt: as §1
as §2, with “Following incubation at 37 °C for 24 h, cells were exposed to various concentrations (0.25, 0.5, 1.0, 2.0, 4.0, 8.0, 16.0, 32.0 µM) of compounds 1–10 for 24 h.” left out
as §3

In the next data set the test system is Hep G2. The data set is described as follows: MTT cytotoxicity assay, Hep G2. As to conditions: Homo sapiens, HepG2, 24 h exposure, ± SD, n = 8. Type of data set: cell-based.
Excerpt: as §1
as §2, with “Following incubation at 37 °C for 24 h, cells were exposed to various concentrations (0.25, 0.5, 1.0, 2.0, 4.0, 8.0, 16.0, 32.0 µM) of compounds 1–10 for 24 h.” left out
as §3

The next data set relates to MDA-MB-231. In words: MTT cytotoxicity assay, MDA-MB-231. Type of data set: cell-based, human. As to conditions: for IC50: Homo sapiens, MDA-MB-231, MTT, 24 h exposure, ± SD, n = 8.
Excerpt: as §1
as §2, with “Following incubation at 37 °C for 24 h, cells were exposed to various concentrations (0.25, 0.5, 1.0, 2.0, 4.0, 8.0, 16.0, 32.0 µM) of compounds 1–10 for 24 h.” left out
as §3
For orientation: Tetrazolium assays rely on reduction of a dye to a coloured formazan, in cell work by metabolically active cells.

The nature of data set [1]: MTT cytotoxicity assay, MRC-5 (normal cells). As to conditions: MRC-5 cells (normal embryonic lung fibroblasts), normal human embryonic lung fibroblast, 24 h exposure, n = 8. Type of data set: cell-based.
Excerpt: as §1, §2, §3

Data set [2] can be described thus: MTT cytotoxicity assay, HNEpC (normal cells). Type of data set: cell-based. As to conditions: HNEpC cells (normal nasal epithelial cells), normal human nasal epithelial cells, 24 h exposure, n = 8.
Excerpt: as §1, §2, §3

For orientation: IC50 means the midpoint of a concentration-inhibition curve. Low readings indicate greater potency, high ones weaker potency.

Turning to `COc1cccc2c1C(=O)c1c(O)c3c(c(O)c1C2=O)C[C@@](O)(C(=O)CO)C[C@@H]3O[C@H]1C[C@H](N)[C@H](O)[C@H](C)O1` [doxorubicin, reference compound], the IC50 in the data set on MCF-7 amounted to 3.79 ± 0.26 µM.
Consider `CC(=O)OC1C(C)OC(OC2C(OC3C(OC4C(=O)c5c(O)cc(O)cc5OC4c4ccc(O)cc4)OC(C)C(O)C3O)OC(CO)C(O)C2O)C(O)C1O` [Compound 6, (2R,3R)-3,5,7,4′-tetrahydroxyflavanone-3-O-[4-acetyl-O-α-L-rhamnopyranosyl-(1→2)-β-D-glucopyranosyl-(1→2)]-α-L-rhamnoside], for which the IC50 with Hela was over 30 µM; in the data set with MCF-7, over 30 µM; in the data set with BEL-7402, 11.4 ± 3.11 µM; with A549, over 30 µM; in the data set on Hep G2, over 30 µM; in the data set on MDA-MB-231, over 30 µM. Moreover, the IC50 at 24 h in data set [1] and in data set [2] was over 30 µM throughout.
Take `CC1OC(OC2C(OC3C(O)C(C(=O)O)OC(OC4CCC5(C)C(CCC6(C)C5CC=C5C7CC(C)(C)CCC7(CO)C(=O)C(O)C56C)C4(C)C)C3OC3OC(CO)C(O)C(O)C3O)OC(CO)C(O)C2O)C(O)C(O)C1O` [Compound 3, 3β,15α,28-trihydroxyolean-12-en-16-on-3-O-β-D-glucopyranosyl-(1→2)-[α-L-rhamnopyranosyl-(1→2)-β-D-galactopyranosyl-(1→3)]-β-D-glucuronopyranoside]: the IC50 in the data set on Hela was over 30 µM; with MCF-7 it was 1.65 ± 0.39 µM; in the data set with BEL-7402, 4.94 ± 0.41 µM; in the data set on A549, 23.4 ± 7.26 µM; with Hep G2, 8.77 ± 1.56 µM; with MDA-MB-231 it was 10.1 ± 2.28 µM. Besides, the “inhibitory effect on MDA-MB-231 cells (in words)” value with MDA-MB-231 (compared with positive control) is given as “comparable to that of cisplatin”. In addition, the IC50 at 24 h in data set [1] and in data set [2] was over 30 µM each time.
Take `COC(=O)C1OC(OC2CCC3(C)C(CCC4(C)C3CC=C3C5CC(C)(C)CCC5(CO)C(O)C(O)C34C)C2(C)C)C(OC2OC(CO)C(O)C(O)C2O)C(OC2OC(CO)C(O)C(O)C2OC2OC(C)C(O)C(O)C2O)C1O` [Compound 1, 3β,15α,16α,28-tetrahydroxyolean-12-en-3-O-β-D-glucopyranosyl-(1→2)-[α-L-rhamnopyranosyl-(1→2)-β-D-galactopyranosyl-(1→3)]-β-D-glucuronopyranoside methyl ester]: the IC50 in the data set on Hela was 15.1 ± 1.06 µM; in the data set on MCF-7, 9.06 ± 0.45 µM; with BEL-7402, 7.62 ± 1.06 µM; with A549 it was over 30 µM; in the data set with Hep G2 it was 25.6 ± 3.46 µM; in the data set on MDA-MB-231 it was over 30 µM. The IC50 at 24 h in data set [1] and in data set [2] was over 30 µM in each case.
On to `C[C@@H]1O[C@@H](OC[C@H]2O[C@@H](Oc3c(-c4ccc(O)c(O)c4)oc4cc(O)cc(O)c4c3=O)[C@H](OC(=O)/C=C/c3ccc(O)cc3)[C@@H](O[C@@H]3OC[C@H](O)[C@H](O)[C@H]3O)[C@@H]2O)[C@H](O)[C@H](O[C@@H]2OC[C@@H](O)[C@H](O)[C@H]2O)[C@H]1O` [Compound 7, 3,5,7,3′,4′-pentahydroxyflavonol-3-O-α-L-arabinopyranosyl-(1→3)-[β-D-xylopyranosyl-(1→3)-α-L-rhamnopyranosyl-(1→6)]-2-O-p-E-coumaryl-β-D-glucopyranoside], for which the IC50 with Hela, with MCF-7, in the data set with BEL-7402, in the data set with A549, in the data set on Hep G2 and with MDA-MB-231 was over 30 µM throughout. Besides, the IC50 at 24 h in data set [1] and in data set [2] was over 30 µM throughout.
Take `CC(=O)OC1C(O)C(C)OC(OC2C(OC3C(OC4C(=O)c5c(O)cc(O)cc5OC4c4ccc(O)cc4)OC(C)C(O)C3O)OC(CO)C(O)C2O)C1O` [Compound 5, (2R,3S)-3,5,7,4′-tetrahydroxyflavanone-3-O-[3-acetyl-O-α-L-rhamnopyranosyl-(1→2)-β-D-glucopyranosyl-(1→2)]-α-L-rhamnoside]: the IC50 is over 30 µM in the data set with Hela; over 30 µM in the data set with MCF-7; over 30 µM with BEL-7402; over 30 µM in the data set on A549; 20.8 ± 3.79 µM in the data set with Hep G2; over 30 µM in the data set with MDA-MB-231. Moreover, the IC50 at 24 h in data set [1] and in data set [2] was over 30 µM in each case.
`CC1OC(OC2C(OC3C(OC4C(=O)c5c(O)cc(O)cc5OC4c4ccc(O)cc4)OC(C)C(O)C3O)OC(CO)C(O)C2O)C(O)C(O)C1O` [Compound 4, (2R,3R)-3,5,7,4′-tetrahydroxyflavanone-3-O-α-L-rhamnopyranosyl-(1→2)-β-D-glucopyranosyl-(1→2)-α-L-rhamnoside]: the IC50 in the data set on Hela, in the data set with MCF-7, in the data set with BEL-7402, in the data set on A549, with Hep G2 and with MDA-MB-231 was over 30 µM in each case. Moreover, the IC50 at 24 h in data set [1] and in data set [2] was over 30 µM throughout.
Consider `CC1OC(OC2C(OC3C(O)C(C(=O)O)OC(OC4CCC5(C)C(CCC6(C)C5CC=C5C7CC(C)(C)CCC7(CO)C(O)C(O)C56C)C4(C)C)C3OC3OC(CO)C(O)C(O)C3O)OC(CO)C(O)C2O)C(O)C(O)C1O` [Compound 2, 3β,15α,16α,28-tetrahydroxyolean-12-en-3-O-β-D-glucopyranosyl-(1→2)-[α-L-rhamnopyranosyl-(1→2)-β-D-galactopyranosyl-(1→3)]-β-D-glucuronopyranoside], for which the IC50 was 4.17 ± 0.85 µM with Hela; 19.2 ± 3.71 µM with MCF-7; over 30 µM with BEL-7402; over 30 µM in the data set with A549; 14 ± 3.29 µM in the data set with Hep G2; 26.5 ± 3.07 µM in the data set on MDA-MB-231. In addition, the IC50 at 24 h in data set [1] and in data set [2] was over 30 µM each time.

For the origin of these results see PMC11506924, “Triterpenoid Saponins and Flavonoid Glycosides from the Flower of Camellia flavida and Their Cytotoxic and α-Glycosidase Inhibitory Activities” (International Journal of Molecular Sciences, 2024).
